Reference: patent publication US7022699B2, “Cyclohexenyl phenyl diazepines vasopressin and oxytocin receptor modulators” (Wyeth, priority 2001, dated 2006)

Columns and labels:
[1] = target: T1, human vasopressin V1a receptor subtype (Homo sapiens, UniProt P37288); assay: Vasopressin binding in CHO cell membranes expressing human vasopressin V1a subtype receptors ([3H]Manning ligand); conditions: 100 nM, values without parentheses
T1 construct: host or cells: CHO cells, stably transfected (pZeoSV vector for the Thibonnier cells); membranes
From the text: Vasopressin Binding in Chinese Hamster Ovary Cell Membranes Expressing Human Vasopressin V1a Subtype Receptors
Chinese hamster ovary cells (CHO cells) stably transfected with the human vasopressin V1a subtype receptors were either obtained from Biosignal Inc., 1744 rue Williams, Montreal, Quebec, Canada or obtained from M. Thibonnier, Case Western Reserve University School of Medicine, Cleveland, Ohio. A. Passaging and Amplification of Cells: CHO cells transfected with the human vasopressin V1a subtype receptors obtained from M. Thibonnier (pZeoSV vector) are allowed to grow to confluency (approx. >90%) in T-150 flasks under sterile conditions, in a cell culture medium of F-12 Nutrient Mixture (HAM) with L-glutamine (Gibco Cat. #11765-054) containing 15 mM HEPES (Gibco Cat. #15630-080), 1% antibiotic/antimycotic (add 5 mL 100×, Gibco Cat. #15240-062 per 500 mL F-12), 250 μg/mL Zeocin (add 1.25 mL of 100 mg/mL Invitrogen R-250-01 per 500 mL F-12) and 10% Fetal Bovine Serum (Qualified, heat inactivated, Gibco Cat. #16140-063). The medium is removed by aspiration and the cells are washed with 10 mL of Hank's Balanced Salt solution (Gibco Cat. #14175-095). The salt solution is removed by aspiration and the cells are trypsinized with 5 mL of trypsin-EDTA (0.05% trypsin, 0.53 mM EDTA-4Na, Gibco Cat. #25300-070) for 1 min. The trypsin is removed by aspiration and the cells dislodged by tapping. Cell Culture medium (eg, 30 mL for 1:30 split) is immediately added and mixed well to inactivate trypsin. 1 mL of detached cells is added to new culture flasks containing fresh cell culture medium (eg, into 25 mL per T-150 flask), and mixed gently. The cells are incubated at 37° C. in 5% CO2. The medium is changed at 3 to 4 days interval (or as appropriate). The cells grow to confluency (approx. >75%–95%) within 7–8 days. All steps are done under sterile conditions. B. Membrane Preparation: The cells are washed twice gently with Hank's Balanced Salt solution (e.g.,. use 10 mL per T-150 flask). The excess is removed and the cells are bathed for 15–30 min. in an enzyme-free Cell Dissociation Buffer (e.g. use 8 mL Hank's Based, Gibco Cat. #13150-016 per T-150 flask) until the cells are loosened. The contents are transferred to centrifuge tubes (50 mL size) kept in ice bath. All subsequent steps are done at 4° C. The tubes are centrifuged at 300×g for 15 min (1380 rpm on SORVAL, Model RT6000D, using rotor for 50 mL tubes). The supernatant is discarded and the cells suspended in homogeneizing buffer (10 mM Tris-HCl containing 0.25 M sucrose and 1 mM EDTA, pH 7.4) ensuring that the volume of the buffer is about ten times the volume of the cell pellet. The cells are pooled into a centrifuge tube (50 mL) and homogenized with Polytron at setting 6 for 10 sec. The homogenate is transferred into a Potter-Elvjehm homogenizer and homogenized with 3 strokes. The homogenate is centrifuged at 1500×g for 10 min at 4° C. (3100 rpm using SORVAL, model RT6000D, using rotor for 50 mL tubes). The pellet is discarded. The supernatant is centrifuged at 100,000×g for 60 min. at 4° C. (Beckman L8-80M ultracentrifuge; spin at 37,500 rpm with rotor type 70 Ti for 50 mL tubes; 38,000 rpm with type 80Ti for 15 mL tubes; or 35,800 rpm with rotor type 45Ti). The supernantant is discarded and the pellet suspended in 3 to 4 mL of Tris buffer (50 mM TRIS-HCl, pH 7.4). The protein content is estimated by the Bradford or Lowry method. The volume of the membrane suspension is adjusted with the membrane buffer (50 mM Tris-HCl containing 0.1% BSA and 0.1 mM PMSF) to give 3.0 mg/mL (or as appropriate) of protein. The membranes are aliquoted and stored at −70° C. C. […]

T1 sequence (P37288 whole entry): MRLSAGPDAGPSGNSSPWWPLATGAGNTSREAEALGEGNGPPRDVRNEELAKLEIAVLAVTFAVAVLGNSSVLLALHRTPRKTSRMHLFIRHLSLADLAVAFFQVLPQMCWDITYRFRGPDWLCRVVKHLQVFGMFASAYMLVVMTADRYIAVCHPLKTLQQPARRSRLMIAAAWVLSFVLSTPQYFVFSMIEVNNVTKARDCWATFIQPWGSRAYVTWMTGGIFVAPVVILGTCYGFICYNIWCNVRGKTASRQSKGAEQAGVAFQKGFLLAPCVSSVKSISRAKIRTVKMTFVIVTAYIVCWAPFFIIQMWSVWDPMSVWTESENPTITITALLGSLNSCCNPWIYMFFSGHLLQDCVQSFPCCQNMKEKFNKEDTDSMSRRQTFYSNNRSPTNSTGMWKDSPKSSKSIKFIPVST

An inhibition at 0.1 µM [1] of 51% and a melting point of 166 °C were found for O=C(c1ccc(C2=CCCc3ccccc32)cc1)N1Cc2cccn2Cc2ccccc21 [Example 18, (10,11-Dihydro-5H-pyrrolo[2,1-c][1,4]benzodiazepin-10-yl)-[4-(3,4-dihydro-naphthalen-1-yl)-phenyl]-methanone] in this work.
An inhibition at 0.1 µM [1] of 23% and a melting point of 153 to 154 °C were found for CC1=C(c2ccc(C(=O)N3Cc4cccn4Cc4ccccc43)cc2)C(C)CCC1 (centres unmarked) [Example 19, (10,11-Dihydro-5H-pyrrolo[2,1-c][1,4]benzodiazepin-10-yl)-[4-(2,6-dimethyl-cyclohex-1-en-1-yl)-phenyl]-methanone] in this work.
An inhibition at 0.1 µM [1] of 13% and a melting point of 118 to 119 °C were found for CC1(C)C2CC=C(c3ccc(C(=O)N4Cc5cccn5Cc5ccccc54)cc3)C1C2 (centres unmarked) [Example 22, (10,11-Dihydro-5H-pyrrolo[2,1-c][1,4]benzodiazepin-10-yl)-[4-(6,6-dimethyl-bicyclo[3.1.1]hept-2-en-2-yl)-phenyl]-methanone] in this work.
An inhibition at 0.1 µM [1] of -10% and a melting point of 142 to 143 °C were found for CC1(C)C=C(c2ccc(C(=O)N3Cc4cccn4Cc4ccccc43)cc2)CC(C)(C)C1 [Example 23, (10,11-Dihydro-5H-pyrrolo[2,1-c][1,4]benzodiazepin-10-yl)-[4-(3,3,5,5-tetramethyl-cyclohex-1-en-1-yl)-phenyl]-methanone] in this work.
An inhibition at 0.1 µM [1] of 49% and a melting point of 205 to 207 °C were found for O=C1C=C(c2ccc(C(=O)N3Cc4cccn4Cc4ccccc43)cc2)CCC1 [Example 24, 3-[4-(10,11-Dihydro-5H-pyrrolo[2,1-c][1,4]benzodiazepine-10-carbonyl)-phenyl]-cyclohex-2-en-1-one] in this work.
An inhibition at 0.1 µM [1] of 27% and a melting point of 95 to 97 °C were found for CC1=C(c2ccc(C(=O)N3Cc4cccn4Cc4ccccc43)cc2)CCCC1=O [Example 26, 3-[4-(10,11-Dihydro-5H-pyrrolo[2,1-c][1,4]benzodiazepine-10-carbonyl)-phenyl]-2-methyl-cyclohex-2-en-1-one] in this work.
An inhibition at 0.1 µM [1] of 27% and a melting point of 132 to 133 °C were found for Cc1cc(C(=O)N2Cc3cccn3Cc3ccccc32)ccc1C1=CCCCC1C (centres unmarked) [Example 29, (10,11-Dihydro-5H-pyrrolo[2,1-c][1,4]benzodiazepin-10-yl)-[3-methyl-4-(6-methyl-cyclohex-1-en-1-yl)-phenyl]-methanone] in this work.
An inhibition at 0.1 µM [1] of 18% and a melting point of 131 °C were found for Cc1cc(C(=O)N2Cc3cccn3Cc3ccccc32)ccc1C1=CCCCC1(C)C [Example 30, (10,11-Dihydro-5H-pyrrolo[2,1-c][1,4]benzodiazepin-10-yl)-[4-(6,6-dimethyl-cyclohex-1-en-1-yl)-3-methyl-phenyl]-methanone] in this work.
An inhibition at 0.1 µM [1] of 6% and a melting point of 133 to 135 °C were found for CC1=C(c2ccc(C(=O)N3Cc4cccn4Cc4ccccc43)cc2C)C(C)CCC1 (centres unmarked) [Example 33, (10,11-Dihydro-5H-pyrrolo[2,1-c][1,4]benzodiazepin-10-yl)-[4-(2,6-dimethyl-cyclohex-1-en-1-yl)-3-methyl-phenyl]-methanone] in this work.
An inhibition at 0.1 µM [1] of -5% and a melting point of 127 to 129 °C were found for Cc1cc(C(=O)N2Cc3cccn3Cc3ccccc32)ccc1C1=CCCCC1C(C)(C)C (centres unmarked) [Example 34, (10,11-Dihydro-5H-pyrrolo[2,1-c][1,4]benzodiazepin-10-yl)-[4-(6-tert-butyl-cyclohex-1-en-1-yl)-3-methyl-phenyl]-methanone] in this work.
An inhibition at 0.1 µM [1] of 36% and a melting point of 168 to 169 °C were found for Cc1cc(C(=O)N2Cc3cccn3Cc3ccccc32)ccc1C1=CCC2CCC1C2 (centres unmarked) [Example 35, (10,11-Dihydro-5H-pyrrolo[2,1-c][1,4]benzodiazepin-10-yl)-(4-bicyclo[3.2.1]oct-2-en-2-yl-3-methyl-phenyl)-methanone] in this work.
An inhibition at 0.1 µM [1] of 11% and a melting point of 187 °C were found for Cc1cc(C(=O)N2Cc3cccn3Cc3ccccc32)ccc1C1=CCC2CC1C2(C)C (centres unmarked) [Example 36, (10,11-Dihydro-5H-pyrrolo[2,1-c][1,4]benzodiazepin-10-yl)-[4-(6,6-dimethyl-bicyclo[3.1.1]hept-2-en-2-yl)-3-methyl-phenyl]-methanone] in this work.
An inhibition at 0.1 µM [1] of 10% and a melting point of 158 °C were found for Cc1cc(C(=O)N2Cc3cccn3Cc3ccccc32)ccc1C1=CC(C)(C)CC(C)(C)C1 [Example 37, (10,11-Dihydro-5H-pyrrolo[2,1-c][1,4]benzodiazepin-10-yl)-[3-methyl-4-(3,3,5,5-tetramethyl-cyclohex-1-en-1-yl)-phenyl]-methanone] in this work.
An inhibition at 0.1 µM [1] of 5% and a melting point of 91 to 94 °C were found for COc1cccc(C2=C(c3ccc(C(=O)N4Cc5cccn5Cc5ccccc54)cc3C)CCCC2)c1 [Example 38, (10,11-Dihydro-5H-pyrrolo[2,1-c][1,4]benzodiazepin-10-yl)-{4-[2-(3-methoxy-phenyl)-cyclohex-1-en-1-yl]-3-methyl-phenyl}-methanone] in this work.
An inhibition at 0.1 µM [1] of 48% and a melting point of 176 to 177 °C were found for Cc1cc(C(=O)N2Cc3cccn3Cc3ccccc32)ccc1C1=CC(=O)CCC1 [Example 39, 3-[4-(10,11-Dihydro-5H-pyrrolo[2,1-c][1,4]benzodiazepine-10-carbonyl)-2-methyl-phenyl]-cyclohex-2-en-1-one] in this work.
An inhibition at 0.1 µM [1] of 85% and a melting point of 127 to 128 °C were found for CO[C@@H]1CCCC(c2ccc(C(=O)N3Cc4cccn4Cc4ccccc43)cc2C)=C1C [Example 44, 10-{4-[(3R)-3-Methoxy-2-methylcyclohex-1-en-1-yl]-3-methylbenzoyl}-10,11-dihydro-5H-pyrrolo[2,1-c][1,4]benzodiazepine] in this work.
